Common to all, as to format: in vivo
One assay relates to Frankliniella intonsa. Kind of assay: Insecticidal effect on Frankliniella intonsa, treated filter paper in petri dish. The following applies: 60 ppm reagent solution; nymphs; 72 hrs. Here is the method:
(§1) The test reagents were all individually dissolved in a mixed solvent of acetone:[…] (1:1) to give a 1000 mg/L solution. 1% Tween-80 was added as an emulsifier to each solution. These solutions were then diluted with 1% Tween-20 solution in water to give desired concentrations of test solutions. An aqueous solution containing 1% Tween-20 was used as a control.
On the bottom of a glass petri dish with a diameter of 6 cm, a piece of filter paper with the same diameter was laid. 1 mL of the reagent solution was drawn by a pipette and uniformly dripped on the filter paper. After the acetone was volatilized, Nymphs of Frankliniella intonsa were transferred from Bombax ceiba with a brush pen to the filter paper in the petri dish. After 0.5-1 h when the insect body was fully covered with the reagent, 3 cm-long petals of Bombax ceiba were placed and the Petri dish were covered. 3 replicates were set for each treatment. After the insects were inoculated, the petri dish was placed in an insect-cultivating chamber at 25° C. with a 16-h-light/8-h-dark photoperiod. 72 hrs after the insects were inoculated, the deaths of Frankliniella intonsa were investigated to calculate the mortality.

The next assay relates to Spodoptera litura. Kind of assay: Insecticidal effect on Spodoptera litura, feeding with immersed cabbage leaf discs. The settings on record: 40 ppm reagent solution; 3rd instar larvae; deaths in 5 days. Here is the method:
as §1
Third instar larvae of Spodoptera litura were used, and the insecticidal effect test was carried out by feeding with leaves immersed with various compounds. The cabbage leaves that had not been exposed to insecticides were cut into leaf discs of about 40 square-mm with scissors. The leaf discs were immersed in each compound solution for 30 s. Then the leaf discs were placed on absorbent paper and air-dried until there were no obvious water stains on the leaf discs. The leaf discs soaked with the reagents were placed in a petri dish (7 cm), each petri dish having 3 leaf discs. The 3rd instar larvae of Spodoptera litura raised on the indoor cabbage plants were gently picked up with a pen brush and placed on the leaf discs in the petri dish, each petri dish having 10-15 insects. After the insects were inoculated, the petri dish was covered, and placed in an insect-cultivating chamber at 25° C. with a 16-h-light/8-h-dark photoperiod. The number of deaths in 5 days was investigated, and the mortality was calculated.

A further assay has as its system Helicoverpa armigera. Kind of assay: Insecticidal effect on Helicoverpa armigera, immersed cabbage leaf discs in 24-well plate. The settings on record: foliar, 72 h, read-out: Insecticidal activity (%) on Helicoverpa armigera (mortality %). Here is the method:
as §1
Third instar larvae of Helicoverpa armigera were used, and the insecticidal effect test was carried out by feeding with leaves immersed with various compounds. The cabbage leaves that had not been exposed to insecticides were punched into leaf discs having a diameter of […]. The leaf discs were immersed in each compound solution for 30 s. Then the leaf discs were placed on absorbent paper and air-dried until there were no obvious water stains on the leaf discs. A washed 24-well plate was prepared, and about 1 ml of water agar medium was fed to each well. After solidification, the treated leaf discs were placed on the medium in the 24-well plate, and then 1 3rd-instar larva of Helicoverpa armigera was inoculated into each well. The 24-well plate was covered after inoculation, placed in an insect cultivating chamber at 25° C. with a 16-h-light/8-h-dark photoperiod. The number of deaths in 3 days was investigated, and the mortality was calculated.

For the compound `Cc1cc(Cl)cc(C(=O)NC(C)(C)C(N)=O)c1NC(=O)c1cc(Br)nn1-c1ncccc1Cl` [Compound 1.1, N-(2-N-((1-amino-2-methyl-1-acylpropan-2-yl)-formyl)-4-chloro-6-methylphenyl)-1-(3-chloropyridin-2-yl)-3-bromo-1H-pyrazol-5-carboxamide], in the assay with Frankliniella intonsa, the “control effect on Frankliniella intonsa” value is reported as “more than 80%”. Further, the “control effect on Spodoptera litura” value in the assay on Spodoptera litura is “more than 80%”. In the assay with Helicoverpa armigera, the mortality at 5 ppm stood at 75% and the mortality at 15 ppm is 87.5%.

`CC(C)(NC(=O)c1cc(Cl)cc(Cl)c1NC(=O)c1cc(Cl)nn1-c1ncccc1Cl)C(N)=O` [KC1]: in the assay with Helicoverpa armigera, the mortality at 5 ppm worked out at 10% and the mortality at 15 ppm was determined as 46.7%.

In the case of `CC(C)(NC(=O)c1cc(Cl)cc(Cl)c1NC(=O)c1cc(Br)nn1-c1ncccc1Cl)C(N)=O` [KC2], in the assay on Helicoverpa armigera, the mortality at 5 ppm is 16.7% and the mortality at 15 ppm worked out at 37.5%.

What is called mortality is the share of the test organisms that died.

Values taken from patent US20200329707A1, “PYRAZOLAMIDE COMPOUND HAVING INSECTICIDAL ACTIVITY AND USE THEREOF” (JIANGSU FLAG CHEMICAL INDUSTRY CO., LTD., priority 2017, published 2020).
